Columns and labels:
[1] = molecular target: Sphingosine 1-phosphate receptor 2 (Homo sapiens, UniProt O95136); assay: (§1) In Vitro Binding Assay: I. Master Stock SolutionUnless specified otherwise, the sample compounds were diluted in 100% anhydrous DMSO including all dilutions. The compounds were tested as the citrate salt (1 equivalent per molecule). If the sample compound is provided in a different solvent all master stock dilutions are performed in the specified solvent. All control wells contained identical solvent final concentrations as the sample compound wells.II. Compound Plate AssayThe sample compounds were transferred from a master stock solution into a daughter plate that was used in the assay. Each sample compound was diluted into an assay buffer (1×HBSS with 20 mM HEPES, 2.5 mM Probenecid, and 0.4% Free Fatty Acid BSA) at an appropriate concentration to obtain final specified concentrations.III. Antagonist Assay FormatUsing the EC80 values that were determined real-time, stimulated all pre-incubated sample compounds and reference antagonists (if applicable) were compared with the EC80 values of reference agonist. These were read for 180 seconds using the […] (This assay added reference agonist to respective wells-then fluorescences measurements were collected to calculate IC50 values).
Sphingosine 1-phosphate receptor 2, sequence (O95136 whole entry): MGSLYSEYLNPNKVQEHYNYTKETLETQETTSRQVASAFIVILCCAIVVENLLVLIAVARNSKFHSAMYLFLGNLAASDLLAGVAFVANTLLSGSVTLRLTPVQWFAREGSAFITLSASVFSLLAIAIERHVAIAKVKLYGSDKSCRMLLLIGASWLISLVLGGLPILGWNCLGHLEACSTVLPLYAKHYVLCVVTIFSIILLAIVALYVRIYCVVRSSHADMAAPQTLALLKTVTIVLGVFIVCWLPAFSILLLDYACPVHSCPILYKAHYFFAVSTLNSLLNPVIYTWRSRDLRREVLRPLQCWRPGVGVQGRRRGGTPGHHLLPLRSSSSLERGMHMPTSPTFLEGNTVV

[2] = molecular target: Sphingosine 1-phosphate receptor 5 (Homo sapiens, UniProt Q9H228); assay: as §1
Sphingosine 1-phosphate receptor 5, sequence (Q9H228 whole entry): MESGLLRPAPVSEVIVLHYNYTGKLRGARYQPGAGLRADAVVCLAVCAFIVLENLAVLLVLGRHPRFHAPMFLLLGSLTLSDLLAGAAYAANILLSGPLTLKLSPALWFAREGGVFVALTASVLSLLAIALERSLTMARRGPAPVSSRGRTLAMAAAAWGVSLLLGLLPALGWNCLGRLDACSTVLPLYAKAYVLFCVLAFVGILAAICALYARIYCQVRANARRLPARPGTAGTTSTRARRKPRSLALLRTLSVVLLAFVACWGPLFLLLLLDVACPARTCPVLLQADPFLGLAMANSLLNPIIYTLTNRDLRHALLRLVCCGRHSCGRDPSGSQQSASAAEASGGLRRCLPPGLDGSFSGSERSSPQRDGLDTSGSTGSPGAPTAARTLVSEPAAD

IC50 [1] [nM]	IC50 [2] [nM]	SMILES
52	110	C=CCN(NC(=O)Nc1cc(Cl)nc(Cl)c1)c1cc(C(C)C)c2c(C)nn(C)c2n1
19	12	Cc1nn(C)c2nc(N(CCCO)NC(=O)Nc3cc(Cl)nc(Cl)c3)cc(C(C)C)c12

Reference: ChEMBL document CHEMBL5726257, “Sphingosine 1-phosphate receptor antagonists” (2017)
